Format in all cases: functional, cell-based
One assay deals with DU-145. As to the kind of experiment: Cytotoxicity against human DU145 cells after 48 hrs by MTT assay. As to conditions: DU-145, 48 h. In general terms: Formazan colour is commonly taken as a measure of viable cells.
A further assay concerns MDA-MB-231. Briefly: Cytotoxicity against human MDA-MB-231 cells after 48 hrs by MTT assay. As to conditions: MDA-MB-231, 48 h.
For the next assay, the system named is A549. As to the kind of experiment: Cytotoxicity against human A549 cells after 48 hrs by MTT assay. As to conditions: A549, 48 h.

pIC50: −log10 of the molar value.

The pIC50 is −log10 of the IC50, conventionally taken in molar units. As to `COc1ccc2c(c1)C1(C(=O)N2)C2=C(COC2=O)Nc2[nH]nc(-c3ccccc3)c21` (stereo not given), the pIC50 in the assay on DU-145 is 4.36; with MDA-MB-231, 4.26; in the assay with A549, 4.30.

With `COc1ccc2c(c1)C1(C(=O)N2)c2c(-c3ccccc3)n[nH]c2Nc2[nH]c(=O)[nH]c(=O)c21` (stereo not given), the results for the pIC50 with DU-145, with MDA-MB-231 and with A549 were 4.64, 4.54 and 4.62, respectively.

As to `O=C1Nc2ccc(Br)cc2C12c1c(-c3ccccc3)n[nH]c1Nc1[nH]c(=O)[nH]c(=O)c12` (stereo not given), the pIC50 is 4.52 in the assay on DU-145, 4.32 with MDA-MB-231 and 4.67 with A549.

`O=C1OCC2=C1C1(C(=O)Nc3ccccc31)c1c(-c3ccccc3)n[nH]c1N2` (stereo not given): the figures for the negative logarithm of the IC50 (pIC50) in the assay on DU-145, with MDA-MB-231 and in the assay with A549 were 4.60, 4.31 and 4.87, respectively.

In the case of `O=C1Nc2ccc(F)cc2C12c1c(-c3ccccc3)n[nH]c1Nc1[nH]c(=O)[nH]c(=O)c12` (stereo not given), the pIC50 in the assay on DU-145 was 4.37; with MDA-MB-231 it was 4.12; in the assay with A549, 4.60.

For `O=C1Nc2ccccc2C12c1c(-c3ccccc3)n[nH]c1Nc1[nH]c(=O)[nH]c(=O)c12` (stereo not given), the figures for the negative-log IC50 (pIC50) in the assay on DU-145, in the assay on MDA-MB-231 and in the assay on A549 were 4.74, 4.45 and 4.75, respectively.

On to `COc1ccc2c(c1)C1(C(=O)N2Cc2ccccc2)C2=C(COC2=O)Nc2[nH]nc(-c3ccccc3)c21` (stereo not given), for which the pIC50 in the assay on DU-145 was 4.82; in the assay with MDA-MB-231, 5.29; with A549 it was 4.84.

Consider `O=C1OCC2=C1C1(C(=O)Nc3ccc(Cl)cc31)c1c(-c3ccccc3)n[nH]c1N2` (stereo not given), for which the negative logarithm of the IC50 (pIC50) with DU-145 is 4.38; in the assay with MDA-MB-231, 4.26; in the assay with A549 it was 4.30.

With `Cc1ccc2c(c1)C1(C(=O)N2)C2=C(COC2=O)Nc2[nH]nc(-c3ccccc3)c21` (stereo not given), the negative logarithm of the IC50 (pIC50) was 4.89 in the assay on DU-145, 4.21 in the assay on MDA-MB-231 and 4.80 with A549.

With `O=C1N(Cc2ccc3c(c2)OCO3)c2ccc(Cl)cc2C12c1c(-c3ccccc3)n[nH]c1Nc1[nH]c(=O)[nH]c(=O)c12` (stereo not given), the pIC50 with DU-145 was 4.61; in the assay with MDA-MB-231, 4.80; in the assay with A549, 4.58.

As to `COc1cc(CN2C(=O)C3(c4cc(Cl)ccc42)c2c(-c4ccccc4)n[nH]c2Nc2[nH]c(=O)[nH]c(=O)c23)cc(OC)c1OC` (stereo not given), the pIC50 in the assay with DU-145 is 4.49; in the assay on MDA-MB-231, 4.40; in the assay with A549 it was 4.50.

As to `COc1cc(CN2C(=O)C3(C4=C(COC4=O)Nc4[nH]nc(-c5ccccc5)c43)c3cc(Cl)ccc32)cc(OC)c1OC` (stereo not given), the negative-log IC50 (pIC50) with DU-145 was 4.69; with MDA-MB-231, 4.71; in the assay on A549, 4.70.

Take `O=C1N(Cc2ccccc2)c2ccccc2C12c1c(-c3ccccc3)n[nH]c1Nc1[nH]c(=O)[nH]c(=O)c12` (stereo not given): the negative-log IC50 (pIC50) in the assay on DU-145 is 4.74; with MDA-MB-231, 4.88; with A549 it was 4.44.

For the compound `O=C1N(Cc2ccc3c(c2)OCO3)c2ccc(Br)cc2C12c1c(-c3ccccc3)n[nH]c1Nc1[nH]c(=O)[nH]c(=O)c12` (stereo not given), the pIC50 in the assay on DU-145 is 4.78; in the assay on MDA-MB-231, 4.87; with A549 it was 4.83.

On to `O=c1[nH]cc(F)c(=O)[nH]1` [FLUOROURACIL], for which the pIC50 with DU-145 is 5.20; in the assay on MDA-MB-231 it was 5.24; in the assay with A549, 5.12.

Regarding `O=C1OCC2=C1C1(C(=O)N(Cc3ccc4c(c3)OCO4)c3ccc(Br)cc31)c1c(-c3ccccc3)n[nH]c1N2` (stereo not given), the values for the pIC50 with DU-145, with MDA-MB-231 and with A549 were 4.87, 5.72 and 4.20, respectively.

Take `O=C1Nc2ccc(I)cc2C12c1c(-c3ccccc3)n[nH]c1Nc1[nH]c(=O)[nH]c(=O)c12` (stereo not given): the values for the pIC50 in the assay on DU-145, with MDA-MB-231 and with A549 were 4.98, 4.34 and 4.90, respectively.

With `O=C1OCC2=C1C1(C(=O)Nc3ccc([N+](=O)[O-])cc31)c1c(-c3ccccc3)n[nH]c1N2` (stereo not given), the figures for the pIC50 in the assay with DU-145, in the assay on MDA-MB-231 and in the assay with A549 were 4.41, 4.30 and 4.29, respectively.

On to `O=C1OCC2=C1C1(C(=O)Nc3ccc(I)cc31)c1c(-c3ccccc3)n[nH]c1N2` (stereo not given), for which the pIC50 was 4.66 in the assay on DU-145, 4.70 in the assay on MDA-MB-231 and 4.48 in the assay with A549.

Take `O=C1OCC2=C1C1(C(=O)Nc3ccc(F)cc31)c1c(-c3ccccc3)n[nH]c1N2` (stereo not given): the pIC50 in the assay on DU-145 was 4.54; in the assay on MDA-MB-231, 4.46; with A549, 4.60.

For the compound `O=C1OCC2=C1C1(C(=O)N(Cc3ccc4c(c3)OCO4)c3ccc(Cl)cc31)c1c(-c3ccccc3)n[nH]c1N2` (stereo not given), the pIC50 in the assay on DU-145 was 4.82; with MDA-MB-231, 6.46; with A549, 4.70.

For the compound `O=C1N(Cc2ccccc2)c2ccc(Br)cc2C12c1c(-c3ccccc3)n[nH]c1Nc1[nH]c(=O)[nH]c(=O)c12` (stereo not given), the pIC50 in the assay with DU-145 was 4.63; with MDA-MB-231, 5.20; in the assay with A549, 4.59.

Turning to `O=C1Nc2ccc([N+](=O)[O-])cc2C12c1c(-c3ccccc3)n[nH]c1Nc1[nH]c(=O)[nH]c(=O)c12` (stereo not given), the pIC50 with DU-145 was 5.02; with MDA-MB-231 it was 4.20; in the assay on A549 it was 5.11.

As for `O=C1OCC2=C1C1(C(=O)Nc3c(F)cccc31)c1c(-c3ccccc3)n[nH]c1N2` (stereo not given), the values for the pIC50 in the assay with DU-145, in the assay with MDA-MB-231 and in the assay with A549 were 4.43, 4.28 and 4.43, respectively.

For the compound `O=C1OCC2=C1C1(C(=O)N(Cc3ccccc3)c3ccc(Br)cc31)c1c(-c3ccccc3)n[nH]c1N2` (stereo not given), the pIC50 was 5.07 in the assay on DU-145, 4.90 in the assay on MDA-MB-231 and 4.80 in the assay on A549.

Take `O=C1Nc2ccc(Cl)cc2C12c1c(-c3ccccc3)n[nH]c1Nc1[nH]c(=O)[nH]c(=O)c12` (stereo not given): the results for the pIC50 in the assay with DU-145, with MDA-MB-231 and in the assay with A549 were 4.80, 4.17 and 5.10, respectively.

With `O=C1OCC2=C1C1(C(=O)N(Cc3ccccc3)c3ccccc31)c1c(-c3ccccc3)n[nH]c1N2` (stereo not given), the pIC50 is 4.80 with DU-145, 4.50 in the assay on MDA-MB-231 and 4.45 with A549.

Consider `O=C1OCC2=C1C1(C(=O)N(Cc3ccccc3)c3ccc(Cl)cc31)c1c(-c3ccccc3)n[nH]c1N2` (stereo not given), for which the pIC50 in the assay on DU-145 is 4.45; with MDA-MB-231, 5.41; with A549 it was 4.30.

On to `Cc1ccc2c(c1)C1(C(=O)N2)c2c(-c3ccccc3)n[nH]c2Nc2[nH]c(=O)[nH]c(=O)c21` (stereo not given), for which the pIC50 in the assay on DU-145 is 5.02; with MDA-MB-231, 4.20; with A549, 5.11.

On to `COc1ccc2c(c1)C1(C(=O)N2Cc2ccccc2)c2c(-c3ccccc3)n[nH]c2Nc2[nH]c(=O)[nH]c(=O)c21` (stereo not given), for which the pIC50 in the assay with DU-145 was 4.66; with MDA-MB-231 it was 4.84; with A549, 4.77.

In the case of `O=C1N(Cc2ccc3c(c2)OCO3)c2ccccc2C12c1c(-c3ccccc3)n[nH]c1Nc1[nH]c(=O)[nH]c(=O)c12` (stereo not given), the pIC50 is 4.71 with DU-145, 4.70 in the assay with MDA-MB-231 and 4.76 in the assay with A549.

Consider `O=C1OCC2=C1C1(C(=O)Nc3ccc(Br)cc31)c1c(-c3ccccc3)n[nH]c1N2` (stereo not given), for which the values for the negative logarithm of the IC50 (pIC50) in the assay with DU-145, in the assay on MDA-MB-231 and in the assay on A549 were 4.69, 4.60 and 4.50, respectively.

`O=C1OCC2=C1C1(C(=O)N(Cc3ccc4c(c3)OCO4)c3ccccc31)c1c(-c3ccccc3)n[nH]c1N2` (stereo not given): the pIC50 with DU-145 was 4.93; in the assay on MDA-MB-231, 4.99; with A549, 4.38.

`O=C1Nc2c(F)cccc2C12c1c(-c3ccccc3)n[nH]c1Nc1[nH]c(=O)[nH]c(=O)c12` (stereo not given): the pIC50 is 4.69 in the assay with DU-145, 4.17 with MDA-MB-231 and 4.74 with A549.

On to `O=C1N(Cc2ccccc2)c2ccc(Cl)cc2C12c1c(-c3ccccc3)n[nH]c1Nc1[nH]c(=O)[nH]c(=O)c12` (stereo not given), for which the pIC50 in the assay with DU-145 is 4.69; in the assay on MDA-MB-231 it was 4.90; in the assay on A549, 4.70.

Values taken from ChEMBL document CHEMBL3399961, “Sulfamic acid promoted one-pot three-component synthesis and cytotoxic evaluation of spirooxindoles” (Bioorg Med Chem Lett, 2015).
